Experimental data from patent US12384771B2, “Pleuromutilin derivative containing thiazole-pyridine benzyl quaternary ammonium salt side chain and preparation method and use thereof” (SHAANXI UNIVERSITY OF SCIENCE AND TECHNOLOGY, priority 2022, dated 2025).
Counter-ions that a name gives are not always drawn.

Legend:
[1] = tested on: Acinetobacter baumannii ATCC 19606; test: MIC, microbroth dilution, standard strains; assay type: cell-based; details: ATCC19606, ATCC 19606, read-out: Minimum inhibitory concentration
Method in brief: (§1)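 Positive control: moxifloxacin. Method: broth microdilution on standard reference strains.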

[2] = tested on: Escherichia coli ATCC 25922; test: MIC, microbroth dilution, standard strains; assay type: cell-based; details: ATCC25922, ATCC 25922, read-out: Minimum inhibitory concentration
Method in brief: as §1

[3] = tested on: Escherichia coli CMCC 44103; test: MIC, microbroth dilution, standard strains; assay type: cell-based; details: CMCC44103, CMCC 44103, read-out: Minimum inhibitory concentration
Method in brief: as §1

[4] = tested on: Salmonella ATCC 14028; test: MIC, microbroth dilution, standard strains; assay type: cell-based; details: ATCC14028, ATCC 14028, read-out: Minimum inhibitory concentration
Method in brief: as §1

[5] = tested on: Staphylococcus aureus ATCC 25923; test: MIC, microbroth dilution, standard strains; assay type: cell-based; details: ATCC25923, ATCC 25923, read-out: Minimum inhibitory concentration
Method in brief: as §1

[6] = tested on: Staphylococcus aureus ATCC 29213; test: MIC, microbroth dilution, standard strains; assay type: cell-based; details: ATCC29213, ATCC 29213, read-out: Minimum inhibitory concentration
Method in brief: as §1

[7] = tested on: Staphylococcus epidermidis ATCC 12228; test: MIC, microbroth dilution, standard strains; assay type: cell-based; details: ATCC12228, ATCC 12228, read-out: Minimum inhibitory concentration
Method in brief: as §1

[8] = tested on: methicillin-resistant Staphylococcus aureus ATCC 33591; test: MIC, microbroth dilution, standard strains; assay type: cell-based; details: ATCC33591, ATCC 33591, read-out: Minimum inhibitory concentration
Method in brief: as §1

[9] = tested on: Mycoplasma gallisepticum R strain (MG-R); test: Anti-mycoplasma activity assay, MIC; assay type: cell-based; details: Mycoplasmoides gallisepticum
Procedure: (§2) The minimum inhibitory concentration of the pleuromutilin derivative containing thiazole-pyridine benzyl quaternary ammonium salt side chain against different mycoplasmas was tested with tiamulin as (purchased from Shanghai Yuanye Bio-Technology Co., Ltd) a positive control using a microbroth dilution method, and the antibacterial effect of the compound against different mycoplasmas was evaluated.
(§3) Experimental strains include Mycoplasma hyopneumoniae standard strain J strain (Mhp-J; NCTC 10110), Mycoplasma hyopneumoniae clinical isolate LH strain (Mhp-LH), Mycoplasma hyorhini standard strain BTS-7 strain (Mhr-BTS-7; NCTC 10130), Mycoplasma gallisepticum R strain (MG-R) and Mycoplasma synoviae WVU1853 strain (MS-WVU1853; NCTC 10124) (purchased from National Collection of Type Cultures, United Kingdom).
(§4) The specific operation steps are as follows: • (1) preparation of KM2 medium: 38.9 g of KM2 medium (purchased from Guangdong Huankai Microbial Sci. & Tech. Co., Ltd.) was weighed, added to 800 mL of distilled water, boiled and dissolved, and autoclaved at 115° C. for 20 min for later use. • (2) preparation of bacterial liquid stock: 0.5 mL of each of Mycoplasma hyopneumoniae (Mhp), Mycoplasma hyorhina (Mhr), Mycoplasma gallisepticum (MG) and Mycoplasma synoviae (MS) was taken and transferred to 4.5 mL of KM2 liquid medium, and when the colour of the medium turned yellow, each of the bacteria was sub-packaged at 0.5 mL per tube, and stored as the bacterial liquid at −70° C. • (3) determination of bacterial liquid titre (colour change unit, CCU): 96-well plate method was used to measure the bacterial liquid titre. The preserved bacterial liquid stock was taken from −70° C., melt and equilibrated to room temperature. 0.18 mL of KM2 medium was added to each well of the middle 4 rows of the 96-well plate (that is, 4 parallels), 0.02 mL of the bacterial liquid stock was taken and added to the wells of the first column, respectively, and subjected to 10-fold dilution until 10^−11. A negative control containing only KM2 medium was set (column 12). The plate was sealed and put into an incubator at 37° C., and the results were observed day by day. The highest dilution at which the colour of the medium can change was the CCU/mL of the strain. • (4) determination of MIC: the minimum inhibitory concentration of the compound against mycoplasmas was determined by a microbroth dilution method. Each drug to be tested was prepared as a stock solution with a concentration of 2560 μg/mL, and each drug stock solution was 2-fold diluted with KM2 liquid medium, and the test concentration range was 0.015-128 μg/mL (large concentration gradient) and 0.000004-0.06 μg/mL (small concentration gradient). An appropriate amount of seed bacterial liquid was taken and diluted to 10^4 CCU/mL serially according to its titre. Drugs of various dilutions were added sequentially to the 96-well plate, and then an equal amount of diluted bacterial liquid was added. 200 μL of diluted mycoplasma liquid was set as a positive control, 200 μL of KM2 liquid culture medium was set as a negative control, and a solvent control group (10 μL of drug solvent+190 μL of mycoplasma liquid) was also set. Three parallels were set for each experiment. After all the culture plates were sealed, they were allowed to culture at 37° C. and observed daily, and the final MIC values were recorded. (See FIG. 22 for the MIC determination results of the representative compound 7 against 5 mycoplasma strains)

[10] = tested on: Mycoplasma hyopneumoniae standard strain J strain (Mhp-J; NCTC 10110); test: Anti-mycoplasma activity assay, MIC; assay type: cell-based; details: Mesomycoplasma hyopneumoniae, NCTC10110
Procedure: as §2, §3, §4

[11] = tested on: Mycoplasma hyorhini standard strain BTS-7 strain (Mhr-BTS-7; NCTC 10130); test: Anti-mycoplasma activity assay, MIC; assay type: cell-based; details: NCTC10130
Procedure: as §2, §3, §4

[12] = tested on: Mycoplasma synoviae WVU1853 strain (MS-WVU1853; NCTC 10124); test: Anti-mycoplasma activity assay, MIC; assay type: cell-based; details: Mycoplasmopsis synoviae, NCTC10124
Procedure: as §2, §3, §4

[13] = Determination of solubility of compounds (HPLC); details: thermodynamic from solid
Procedure: Experimental method: representative compounds 2, 4 and 7 were selected for solubility determination, and retapamulin hydrochloride was used as a control. 1 mg of each sample was taken and quantitatively dissolved in a 10 mL volumetric flask, and the absorption peak area was measured by a high-performance liquid chromatography; then, the saturated solutions of the representative compounds 2, 4 and 7 and the control drug retapamulin were diluted 10-fold, and the absorption peak area was determined by HPLC; their respective solubility was obtained by calculating the absorption peak area.
The experimental instrument was Shimadzu LC-16, the chromatographic column was Hypersil C18 ODS (4.6×250 mm×5 μm), the flow rate was 1.0 mL/min, the detection wavelength was 300 nm, and the mobile phase was 0.05 mol/L of aqueous acetic acid solution:acetonitrile=30:70.

C=C[C@]1(C)C[C@@H](OC(=O)CSc2nc(-c3cc[n+](Cc4ccc([N+](=O)[O-])cc4)cc3)cs2)[C@]2(C)[C@H](C)CC[C@]3(CCC(=O)[C@H]32)[C@@H](C)[C@@H]1O [Compound 7, 1-(4-(nitro)benzyl)-4-(2-(8-hydroxy-4,7,9,12-tetramethyl-3-oxo-7-vinyldecahydro-4,9a-propancyclopent[8]cyclen-5-yl)oxy)-2-oxoethyl)thiazol-4-yl)pyridyl bromide salt]
MIC [1]: 2 µg/mL
MIC [2]: 1 µg/mL
MIC [3]: 0.5 µg/mL
MIC [4]: 2 µg/mL
MIC [5]: 0.5 µg/mL
MIC [6]: 0.125 µg/mL
MIC [7]: 2 µg/mL
MIC [8]: 1 µg/mL
MIC [9]: 0.004 µg/mL
MIC [10]: 0.004 µg/mL
MIC [11]: 0.008 µg/mL
MIC [12]: 0.015 µg/mL
solubility ([13]; organic solvent or mixture): 11300 µg/mL
solubility ([13]; pH 1.5, simulated gastric fluid): 3450 µg/mL
solubility ([13]; pH 7, water): 2540 µg/mL
